According to patent US20260334439A1, “BCAT2 INHIBITORS” (Agios Pharmaceuticals, Inc., priority 2023, published 2026):

Molecular target: T1, BCAT2 (Homo sapiens, UniProt O15382)
T1 sequence (O15382 28-392): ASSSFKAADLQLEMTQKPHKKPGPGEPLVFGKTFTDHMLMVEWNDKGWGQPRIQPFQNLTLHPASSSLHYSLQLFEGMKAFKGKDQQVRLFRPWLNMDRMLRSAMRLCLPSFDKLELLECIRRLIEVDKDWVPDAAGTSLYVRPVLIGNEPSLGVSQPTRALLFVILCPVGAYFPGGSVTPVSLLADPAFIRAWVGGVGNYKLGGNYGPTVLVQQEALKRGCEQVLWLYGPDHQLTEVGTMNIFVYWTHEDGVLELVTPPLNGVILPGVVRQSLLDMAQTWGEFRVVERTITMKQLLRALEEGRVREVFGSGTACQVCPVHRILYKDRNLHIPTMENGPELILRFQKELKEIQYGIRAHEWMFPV
Experiment: BCAT2 in vitro enzyme inhibition assay (hBCAT2, glutamate dehydrogenase/diaphorase/resazurin coupled fluorescence read)
Format: biochemical
Conditions: hBCAT2, 1 h preincubation at 25° C., one hour reaction; average where tested multiple times
Protocol: • 2×Buffer: 200 mM Tris pH 8.0, 300 mM NaCl, 0.1% BSA • 1.67×hBCAT2 Enzyme Mix: 0.33 μg/mL hBCAT2, 1× Buffer • 2.5×Substrate Mix: 460 µM L-leucine, 420 µM α-KetoGlutarate, 10 U/mL glutamate dehydrogenase, 10 mM NAD, […] diaphorase, […] Resazurin
BCAT2 enzyme stock solution was diluted to prepare a 1.67×hBCAT2 Enzyme Mix. 1 μL of test compound was first added to the reaction wells followed by 30 μL of 1.67×hBCAT2 Enzyme Mix and incubated at room temperature (25° C.) for one hour. Meanwhile the Substrate Mix was prepared. The reaction was initiated by the addition of 20 μL of the 2.5×Substrate Mix, bringing the final reaction mix of all components to 1×. Reactions were quenched after one hour by the addition of 25 μL of 6% SDS and reaction progress was measured via fluorescence read (Ex 540/Em 590).
Test compounds were prepared at 50×final concentration in DMSO, 1 to 3 dilutions were made for 10 points. The compounds were added to the assay as a 1 to 50 dilution (1 μL in 50 μL) to yield a top assay final concentration of 100 μM, decreasing 3-fold for 10 points. Each compound dilution series test also included an assay max (1 μL DMSO Added in lieu of compound, Full Reaction Components Included) and Min (1 μL DMSO Added in lieu of compound, 30 μl of 1.67×hBCAT2 Enzyme Mix replated by 30 μL of 1×Buffer). All tests were performed in technical duplicate.
Where a compound was tested multiple times, the average value of the tests is reported.

IC50 | SMILES
> 1000 nM | O=C(N[C@H]1CCC[C@@H](n2c(CCC3CCOC3)nc3cnc(-c4nc[nH]n4)cc32)C1)c1cc(Cl)ccn1 (stereo partly drawn) [Example 94, 4-chloro-N-((1S,3R)-3-(2-(2-(tetrahydrofuran-3-yl)ethyl)-6-(1H-1,2,4-triazol-3-yl)-1H-imidazo[4,5-c]pyridin-1-yl)cyclohexyl)picolinamide]
> 1000 nM | CC(CCO)Cc1nc2cnc(-c3nc[nH]n3)cc2n1[C@@H]1CCC[C@H](NC(=O)c2cc(Cl)ccn2)C1 (stereo partly drawn) [Example 95, 4-chloro-N-((1S,3R)-3-(2-(4-hydroxy-2-methylbutyl)-6-(1H-1,2,4-triazol-3-yl)-1H-imidazo[4,5-c]pyridin-1-yl)cyclohexyl)picolinamide]
> 1000 nM | CC(CCO)Cc1nc2cnc(-c3nc[nH]n3)cc2n1[C@@H]1CCC[C@H](NC(=O)c2cc(Cl)ccn2)C1 (stereo partly drawn) [Example 96, 4-chloro-N-((1S,3R)-3-(2-(4-hydroxy-2-methylbutyl)-6-(1H-1,2,4-triazol-3-yl)-1H-imidazo[4,5-c]pyridin-1-yl)cyclohexyl)picolinamide]
< 100 nM | N#Cc1ccccc1-c1nc2cnc(-c3nc(C(F)(F)F)co3)cc2n1[C@@H]1CCC[C@H](NC(=O)c2cc(F)ccn2)C1 [Example 99, N-((1S,3R)-3-(2-(2-cyanophenyl)-6-(4-(trifluoromethyl)oxazol-2-yl)-1H-imidazo[4,5-c]pyridin-1-yl)cyclohexyl)-4-fluoropicolinamide]
< 100 nM | N#Cc1ccccc1-c1nc2cnc(-c3nc(C(F)(F)F)co3)cc2n1[C@@H]1CCC[C@H](NC(=O)c2cc(F)ccc2F)C1 [Example 101, N-((1S,3R)-3-(2-(2-cyanophenyl)-6-(4-(trifluoromethyl)oxazol-2-yl)-1H-imidazo[4,5-c]pyridin-1-yl)cyclohexyl)-2,5-difluorobenzamide]
< 100 nM | O=C(N[C@H]1CCC[C@@H](n2c(-c3ccccc3F)nc3cnc(-c4nc[nH]n4)cc32)[C@@H]1O)c1cc(Cl)ccn1 [Example 103, 4-chloro-N-((1S,2R,3R)-3-(2-(2-fluorophenyl)-6-(1H-1,2,4-triazol-3-yl)-1H-imidazo[4,5-c]pyridin-1-yl)-2-hydroxycyclohexyl)picolinamide]
> 1000 nM | COc1ccc(Cl)cc1C(=O)N[C@@H]1C[C@@H](OC)C[C@H](n2c(-c3ccccc3F)nc3cnc(-c4nc[nH]n4)cc32)C1 [Example 107, 5-chloro-N-((1S,3R,5R)-3-(2-(2-fluorophenyl)-6-(1H-1,2,4-triazol-3-yl)-1H-imidazo[4,5-c]pyridin-1-yl)-5-methoxycyclohexyl)-2-methoxybenzamide]
< 100 nM | COc1ccc(Cl)cc1C(=O)N[C@H]1CCC[C@@H](n2c(-c3ccccc3C#N)nc3cnc(-c4nc[nH]n4)cc32)[C@@H]1O [Example 108, 5-chloro-N-((1S,2R,3R)-3-(2-(2-cyanophenyl)-6-(1H-1,2,4-triazol-3-yl)-1H-imidazo[4,5-c]pyridin-1-yl)-2-hydroxycyclohexyl)-2-methoxybenzamide]
500 to 1000 nM | COc1ccc(Cl)cc1C(=O)N[C@@H]1CCCC[C@H](n2c(-c3c(F)cccc3OC)nc3cnc(-c4nc[nH]n4)cc32)[C@H]1O [Example 109, 5-chloro-N-((1R,2S,3S)-3-(2-(2-fluoro-6-methoxyphenyl)-6-(1H-1,2,4-triazol-3-yl)-1H-imidazo[4,5-c]pyridin-1-yl)-2-hydroxycycloheptyl)-2-methoxybenzamide]
< 100 nM | COc1ccc(Cl)cc1C(=O)N[C@H]1CCCC[C@@H](n2c(-c3c(F)cccc3OC)nc3cnc(-c4nc[nH]n4)cc32)[C@@H]1O [Example 110, 5-chloro-N-((1S,2R,3R)-3-(2-(2-fluoro-6-methoxyphenyl)-6-(1H-1,2,4-triazol-3-yl)-1H-imidazo[4,5-c]pyridin-1-yl)-2-hydroxycycloheptyl)-2-methoxybenzamide]
< 100 nM | COc1ccc(Cl)cc1C(=O)N[C@H]1C[C@H](O)C[C@@H](n2c(CC(C)C)nc3cnc(-c4ncccn4)cc32)C1 [Example 111, 5-chloro-N-((1R,3S,5S)-3-hydroxy-5-(2-isobutyl-6-(pyrimidin-2-yl)-1H-imidazo[4,5-c]pyridin-1-yl)cyclohexyl)-2-methoxybenzamide]
> 1000 nM | COc1ccc(Cl)cc1C(=O)N[C@@H]1C[C@@H](O)C[C@H](n2c(CC(C)C)nc3cnc(-c4ncccn4)cc32)C1 [Example 112, 5-chloro-N-((1S,3R,5R)-3-hydroxy-5-(2-isobutyl-6-(pyrimidin-2-yl)-1H-imidazo[4,5-c]pyridin-1-yl)cyclohexyl)-2-methoxybenzamide]
100 to 500 nM | CO[C@H]1C[C@@H](NC(=O)c2cc(F)ccn2)C[C@@H](n2c(-c3ccccc3F)nc3cnc(-c4nc[nH]n4)cc32)C1 [Example 115, 4-fluoro-N-((1S,3R,5S)-3-(2-(2-fluorophenyl)-6-(1H-1,2,4-triazol-3-yl)-1H-imidazo[4,5-c]pyridin-1-yl)-5-methoxycyclohexyl)picolinamide]
100 to 500 nM | CC(C)Cc1nc2cnc(-c3nc[nH]n3)cc2n1[C@@H]1CCC[C@H](NC(=O)c2cc(F)ccc2F)[C@H]1O [Example 121, 2,5-difluoro-N-((1S,2R,3R)-2-hydroxy-3-(2-isobutyl-6-(1H-1,2,4-triazol-3-yl)-1H-imidazo[4,5-c]pyridin-1-yl)cyclohexyl)benzamide]
< 100 nM | CO[C@H]1C[C@H](NC(=O)c2cc(F)ccc2F)C[C@H](n2c(-c3ccccc3OCCO)nc3cnc(-c4ncco4)cc32)C1 [Example 123, 2,5-difluoro-N-((1R,3S,5S)-3-(2-(2-(2-hydroxyethoxy)phenyl)-6-(oxazol-2-yl)-1H-imidazo[4,5-c]pyridin-1-yl)-5-methoxycyclohexyl)benzamide]
< 100 nM | CO[C@H]1C[C@H](NC(=O)c2cc(Cl)ccc2F)C[C@H](n2c(-c3ccccc3OCCO)nc3cnc(-c4ncco4)cc32)C1 [Example 124, 5-chloro-2-fluoro-N-((1R,3S,5S)-3-(2-(2-(2-hydroxyethoxy)phenyl)-6-(oxazol-2-yl)-1H-imidazo[4,5-c]pyridin-1-yl)-5-methoxycyclohexyl)benzamide]
< 100 nM | Cc1coc(-c2cc3c(cn2)nc(-c2ccccc2F)n3[C@@H]2CCC[C@H](NC(=O)c3cc(F)ccc3F)[C@H]2O)n1 [Example 125, 2,5-difluoro-N-((1S,2R,3R)-3-(2-(2-fluorophenyl)-6-(4-methyloxazol-2-yl)-1H-imidazo[4,5-c]pyridin-1-yl)-2-hydroxycyclohexyl)benzamide]
< 100 nM | O=C(NC1CCCCC(n2c(-c3ccccc3F)nc3cnc(-c4nc(C(F)(F)F)co4)cc32)C1O)c1cc(F)ccc1F (stereo not shown) [Example 126, 2,5-difluoro-N-(3-(2-(2-fluorophenyl)-6-(4-(trifluoromethyl)oxazol-2-yl)-1H-imidazo[4,5-c]pyridin-1-yl)-2-hydroxycycloheptyl)benzamide]
< 100 nM | N[C@@H]1[C@@H](NC(=O)c2cc(F)ccc2F)CCC[C@H]1n1c(-c2ccccc2F)nc2cnc(-c3nc[nH]n3)cc21 [Example 127, N-((1S,2R,3R)-2-amino-3-(2-(2-fluorophenyl)-6-(1H-1,2,4-triazol-3-yl)-1H-imidazo[4,5-c]pyridin-1-yl)cyclohexyl)-2,5-difluorobenzamide]
> 1000 nM | CN1C[C@@H](NC(=O)c2cc(Cl)ccn2)C[C@@H](n2c(-c3ncccc3F)nc3cnc(-c4nc[nH]n4)cc32)C1 [Example 131, 4-chloro-N-((3S,5R)-5-(2-(3-fluoropyridin-2-yl)-6-(1H-1,2,4-triazol-3-yl)-1H-imidazo[4,5-c]pyridin-1-yl)-1-methylpiperidin-3-yl)picolinamide]
500 to 1000 nM | COc1ccc(Cl)cc1C(=O)N[C@H]1C[C@@H](n2c(-c3ccccc3F)nc3cnc(-c4nc[nH]n4)cc32)CN(C)C1 [Example 135, 5-chloro-N-((3S,5R)-5-(2-(2-fluorophenyl)-6-(1H-1,2,4-triazol-3-yl)-1H-imidazo[4,5-c]pyridin-1-yl)-1-methylpiperidin-3-yl)-2-methoxybenzamide]
> 1000 nM | COc1ccc(Cl)cc1C(=O)N[C@H]1C[C@@H](n2c(-c3ncccc3F)nc3cnc(-c4nc[nH]n4)cc32)CN(C)C1 [Example 138, 5-chloro-N-((3S,5R)-5-(2-(3-fluoropyridin-2-yl)-6-(1H-1,2,4-triazol-3-yl)-1H-imidazo[4,5-c]pyridin-1-yl)-1-methylpiperidin-3-yl)-2-methoxybenzamide]
